In patent US5057146A (priority 1986, dated 1991):
Read-outs that look alike come from different tables or passages of the source.

Key:
Puccinia recondita = assay: foliar fungal disease control, Puccinia recondita on wheat; format: in vivo
Method: (§1) The compounds were tested against a variety of foliar fungal diseases of plants. The technique employed was as follows.
(§2) The plants were grown in John Innes Potting Compost (No 1 or 2) in 4 cm diameter minipots. The test compounds were formulated either by bead milling with aqueous Dispersol T or as a solution in acetone or acetone/ethanol which was diluted to the required concentration immediately before use. […] The sprays were applied to maximum retention and the root drenches to a final concentration equivalent to approximately 40 ppm a.i./dry soil. Tween 20, to give a final concentration of 0.05%, was added when the sprays were applied to cereals.
(§3) For most of the tests the compound was applied to the soil (roots) and to the foliage (by spraying) one or two days before the plant was inoculated with the disease. An exception was the test on Erysiphe graminis in which the plants were inoculated 24 hours before treatment. Foliar pathogens were applied by spray as spore suspensions onto the leaves of test plants. After inoculation, the plants were put into an appropriate environment to allow infection to proceed and then incubated until the disease was ready for assessment. The period between inoculation and assessment varied from four to fourteen days according to the disease and environment.
(§4) The disease control was recorded by the following grading: […]

Erysiphe graminis hordei = assay: foliar fungal disease control, Erysiphe graminis hordei on barley; format: in vivo; settings: inoculated 24 hours before treatment
Method: as §1, §2, §3, §4

Venturia inaequalis = assay: foliar fungal disease control, Venturia inaequalis on apple; format: in vivo
Method: as §1, §2, §3, §4

Pyricularia oryzae = format: in vivo, Pyricularia oryzae (rice)
Cercospora arachidicola = assay: foliar fungal disease control, Cercospora arachidicola on peanut; format: in vivo
Method: as §1, §2, §3, §4

Plasmopara viticola = assay: foliar fungal disease control, Plasmopara viticola on vine; format: in vivo
Method: as §1, §2, §3, §4

Phytophthora infestans = format: in vivo, Phytophthora infestans (tomato)
[1] = 100 ppm foliar spray plus root drench approx. 40 ppm a.i./dry soil

With CO/C=C(/C(=O)OC)c1ccccc1[S+]([O-])c1ccc(Br)cn1 (stereo not shown) [Compound 1 (Table III), (E)--methyl 2-(2'-(5"-bromopyridin-2"-ylsulphinyl)phenyl]-3-methoxyacrylate] the “disease control grading, Puccinia recondita (wheat)” value (from here on “disease control grading … (wheat)”) (Puccinia recondita; 25 ppm foliar spray only) was 0 (60-100% of disease on untreated plants), the “disease control grading, Erysiphe graminis hordei (barley)” value (from here on “disease control grading … (barley)”) (Erysiphe graminis hordei; 25 ppm foliar spray only) was 0 (60-100% of disease on untreated plants) and the “disease control grading, Venturia inaequalis (apple)” value (shortened to “disease control grading … (apple)”) (Venturia inaequalis; 25 ppm foliar spray only) was 3 (trace-5% of disease on untreated plants). The “disease control grading, Pyricularia oryzae (rice)” value (“disease control grading … (rice)” for short) (Pyricularia oryzae; 25 ppm foliar spray only) was 0 (60-100% of disease on untreated plants), the “disease control grading, Cercospora arachidicola (peanut)” value (“disease control grading … (peanut)” for short) (Cercospora arachidicola; 25 ppm foliar spray only) was 0 (60-100% of disease on untreated plants) and the “disease control grading, Plasmopara viticola (vine)” value (“disease control grading … (vine)” for short) (Plasmopara viticola; 25 ppm foliar spray only) was 0 (60-100% of disease on untreated plants). For the same compound, the “disease control grading, Phytophthora infestans (tomato)” value (shortened to “disease control grading … (tomato)”) (Phytophthora infestans; 25 ppm foliar spray only) was 0 (60-100% of disease on untreated plants).

With CO/C=C(/C(=O)OC)c1ccccc1Oc1nc(F)cc(F)n1 [Compound 137 (Table I)] the “disease control grading … (wheat)” value (Puccinia recondita; [1]) was 2 (6-25% of disease on untreated plants), the “disease control grading … (barley)” value (Erysiphe graminis hordei; [1]) was 0 (60-100% of disease on untreated plants) and the “disease control grading … (apple)” value (Venturia inaequalis; [1]) was 4. For the same compound, the “disease control grading … (rice)” value (Pyricularia oryzae; [1]) was 0 (60-100% of disease on untreated plants), the “disease control grading … (peanut)” value (Cercospora arachidicola; [1]) was 0 (60-100% of disease on untreated plants) and the “disease control grading … (vine)” value (Plasmopara viticola; [1]) was 0 (60-100% of disease on untreated plants). The “disease control grading … (tomato)” value (Phytophthora infestans; [1]) was 0 (60-100% of disease on untreated plants).

With CO/C=C(/C(=O)OC)c1ccccc1Oc1cccc(C)n1 [Compound 21 (Table I)] the “disease control grading … (wheat)” value (Puccinia recondita; [1]) was 3 (trace-5% of disease on untreated plants), the “disease control grading … (barley)” value (Erysiphe graminis hordei; [1]) was 4 and the “disease control grading … (apple)” value (Venturia inaequalis; [1]) was 4. For the same compound, the “disease control grading … (rice)” value (Pyricularia oryzae; [1]) was 4, the “disease control grading … (peanut)” value (Cercospora arachidicola; [1]) was 4 and the “disease control grading … (vine)” value (Plasmopara viticola; [1]) was 4. For the same compound, the “disease control grading … (tomato)” value (Phytophthora infestans; [1]) was 3 (trace-5% of disease on untreated plants).

CO/C=C(/C(=O)OC)c1ccccc1Oc1cc(C(F)(F)F)ccn1 [Compound 11 (Table I)] was tested, and the “disease control grading … (wheat)” value (Puccinia recondita; 25 ppm foliar spray only) was 3 (trace-5% of disease on untreated plants), the “disease control grading … (barley)” value (Erysiphe graminis hordei; 25 ppm foliar spray only) was 4 and the “disease control grading … (apple)” value (Venturia inaequalis; 25 ppm foliar spray only) was 4. The “disease control grading … (rice)” value (Pyricularia oryzae; 25 ppm foliar spray only) was 2 (6-25% of disease on untreated plants), the “disease control grading … (peanut)” value (Cercospora arachidicola; 25 ppm foliar spray only) was 0 (60-100% of disease on untreated plants) and the “disease control grading … (vine)” value (Plasmopara viticola; 25 ppm foliar spray only) was 4. For the same compound, the “disease control grading … (tomato)” value (Phytophthora infestans; 25 ppm foliar spray only) was 4.

For CO/C=C(/C(=O)OC)c1ccccc1Oc1cc(F)nc(Cl)c1 [Compound 167 (Table I)], the “disease control grading … (wheat)” value (Puccinia recondita; [1]) was 4, the “disease control grading … (barley)” value (Erysiphe graminis hordei; [1]) was 4 and the “disease control grading … (apple)” value (Venturia inaequalis; [1]) was 4. The “disease control grading … (rice)” value (Pyricularia oryzae; [1]) was 3 (trace-5% of disease on untreated plants), the “disease control grading … (peanut)” value (Cercospora arachidicola; [1]) was 0 (60-100% of disease on untreated plants) and the “disease control grading … (vine)” value (Plasmopara viticola; [1]) was 4.

For CO/C=C(/C(=O)OC)c1ccccc1Oc1nccc(Cl)n1 [Compound 61 (Table I), (E)-methyl 2-[2'-(4"-chloropyrimidin-2"-yloxy)phenyl]-3-methoxyacrylate], the “disease control grading … (wheat)” value (Puccinia recondita; [1]) was 3 (trace-5% of disease on untreated plants), the “disease control grading … (barley)” value (Erysiphe graminis hordei; [1]) was 4 and the “disease control grading … (apple)” value (Venturia inaequalis; [1]) was 4. For the same compound, the “disease control grading … (rice)” value (Pyricularia oryzae; [1]) was 0 (60-100% of disease on untreated plants), the “disease control grading … (peanut)” value (Cercospora arachidicola; [1]) was 4 and the “disease control grading … (vine)” value (Plasmopara viticola; [1]) was 1 (26-59% of disease on untreated plants). The “disease control grading … (tomato)” value (Phytophthora infestans; [1]) was 0 (60-100% of disease on untreated plants).

CO/C=C(/C(=O)OC)c1ccccc1Oc1ncc(C(F)(F)F)cc1[N+](=O)[O-] [Compound 129 (Table I)] was tested, and the “disease control grading … (wheat)” value (Puccinia recondita; [1]) was 0 (60-100% of disease on untreated plants), the “disease control grading … (barley)” value (Erysiphe graminis hordei; [1]) was 4 and the “disease control grading … (apple)” value (Venturia inaequalis; [1]) was 4. For the same compound, the “disease control grading … (rice)” value (Pyricularia oryzae; [1]) was 0 (60-100% of disease on untreated plants), the “disease control grading … (peanut)” value (Cercospora arachidicola; [1]) was 0 (60-100% of disease on untreated plants) and the “disease control grading … (vine)” value (Plasmopara viticola; [1]) was 0 (60-100% of disease on untreated plants). For the same compound, the “disease control grading … (tomato)” value (Phytophthora infestans; [1]) was 0 (60-100% of disease on untreated plants).

For CO/C=C(/C(=O)OC)c1ccccc1Oc1ccc(N)cn1 [Compound 131 (Table I)], the “disease control grading … (wheat)” value (Puccinia recondita; [1]) was 3 (trace-5% of disease on untreated plants), the “disease control grading … (barley)” value (Erysiphe graminis hordei; [1]) was 0 (60-100% of disease on untreated plants) and the “disease control grading … (apple)” value (Venturia inaequalis; [1]) was 0 (60-100% of disease on untreated plants). The “disease control grading … (rice)” value (Pyricularia oryzae; [1]) was 0 (60-100% of disease on untreated plants), the “disease control grading … (peanut)” value (Cercospora arachidicola; [1]) was 0 (60-100% of disease on untreated plants) and the “disease control grading … (vine)” value (Plasmopara viticola; [1]) was 0 (60-100% of disease on untreated plants). The “disease control grading … (tomato)” value (Phytophthora infestans; [1]) was 0 (60-100% of disease on untreated plants).

CO/C=C(/C(=O)OC)c1ccccc1Oc1nc(C)cc(Cl)n1 [Compound 166 (Table I)] was tested, and the “disease control grading … (wheat)” value (Puccinia recondita; [1]) was 4, the “disease control grading … (barley)” value (Erysiphe graminis hordei; [1]) was 4 and the “disease control grading … (apple)” value (Venturia inaequalis; [1]) was 4. For the same compound, the “disease control grading … (rice)” value (Pyricularia oryzae; [1]) was 1 (26-59% of disease on untreated plants), the “disease control grading … (peanut)” value (Cercospora arachidicola; [1]) was 4 and the “disease control grading … (vine)” value (Plasmopara viticola; [1]) was 3 (trace-5% of disease on untreated plants). For the same compound, the “disease control grading … (tomato)” value (Phytophthora infestans; [1]) was 3 (trace-5% of disease on untreated plants).

With CO/C=C(/C(=O)OC)c1ccccc1Sc1ccc(Br)cn1 [Compound 15 (Table II), (E)-methyl 2-[2'-(5"-bromopyridin-2"-ylthio)phenyl]-3-methoxyacrylate] the “disease control grading … (wheat)” value (Puccinia recondita; [1]) was 2 (6-25% of disease on untreated plants), the “disease control grading … (barley)” value (Erysiphe graminis hordei; [1]) was 3 (trace-5% of disease on untreated plants) and the “disease control grading … (apple)” value (Venturia inaequalis; [1]) was 0 (60-100% of disease on untreated plants). For the same compound, the “disease control grading … (rice)” value (Pyricularia oryzae; [1]) was 0 (60-100% of disease on untreated plants), the “disease control grading … (peanut)” value (Cercospora arachidicola; [1]) was 1 (26-59% of disease on untreated plants) and the “disease control grading … (vine)” value (Plasmopara viticola; [1]) was 4. The “disease control grading … (tomato)” value (Phytophthora infestans; [1]) was 0 (60-100% of disease on untreated plants).

For CO/C=C(/C(=O)OC)c1ccccc1Oc1cc(C)ccn1 [Compound 10 (Table I)], the “disease control grading … (wheat)” value (Puccinia recondita; [1]) was 4, the “disease control grading … (barley)” value (Erysiphe graminis hordei; [1]) was 4 and the “disease control grading … (apple)” value (Venturia inaequalis; [1]) was 4. The “disease control grading … (rice)” value (Pyricularia oryzae; [1]) was 4, the “disease control grading … (peanut)” value (Cercospora arachidicola; [1]) was 3 (trace-5% of disease on untreated plants) and the “disease control grading … (vine)” value (Plasmopara viticola; [1]) was 4. For the same compound, the “disease control grading … (tomato)” value (Phytophthora infestans; [1]) was 4.

CO/C=C(/C(=O)OC)c1ccccc1S(=O)(=O)c1ccc(Br)cn1 [Compound 2 (Table III), (E)-meth-yl 2-(2'-(5"-bromopyridin-2"-ylsulphonyl)phenyl]-3-methoxyacrylate] was tested, and the “disease control grading … (wheat)” value (Puccinia recondita; [1]) was 3 (trace-5% of disease on untreated plants), the “disease control grading … (barley)” value (Erysiphe graminis hordei; [1]) was 0 (60-100% of disease on untreated plants) and the “disease control grading … (apple)” value (Venturia inaequalis; [1]) was 3 (trace-5% of disease on untreated plants). For the same compound, the “disease control grading … (rice)” value (Pyricularia oryzae; [1]) was 0 (60-100% of disease on untreated plants), the “disease control grading … (peanut)” value (Cercospora arachidicola; [1]) was 0 (60-100% of disease on untreated plants) and the “disease control grading … (vine)” value (Plasmopara viticola; [1]) was 0 (60-100% of disease on untreated plants). The “disease control grading … (tomato)” value (Phytophthora infestans; [1]) was 0 (60-100% of disease on untreated plants).

With CO/C=C(/C(=O)OC)c1ccccc1Oc1ccc(C)cn1 [Compound 16 (Table I)] the “disease control grading … (wheat)” value (Puccinia recondita; [1]) was 2 (6-25% of disease on untreated plants), the “disease control grading … (barley)” value (Erysiphe graminis hordei; [1]) was 4 and the “disease control grading … (apple)” value (Venturia inaequalis; [1]) was 4. The “disease control grading … (rice)” value (Pyricularia oryzae; [1]) was 4, the “disease control grading … (peanut)” value (Cercospora arachidicola; [1]) was 4 and the “disease control grading … (vine)” value (Plasmopara viticola; [1]) was 4. The “disease control grading … (tomato)” value (Phytophthora infestans; [1]) was 4.

In the case of CO/C=C(/C(=O)OC)c1ccccc1Oc1ccc([N+](=O)[O-])cn1 [Compound 133 (Table I), (E)-methyl 2-[2'-(5"-nitropyridin-2"-yloxy)phenyl]-3-methoxyacrylate], the “disease control grading … (wheat)” value (Puccinia recondita; [1]) is reported as 4, the “disease control grading … (barley)” value (Erysiphe graminis hordei; [1]) is reported as 4 and the “disease control grading … (apple)” value (Venturia inaequalis; [1]) is reported as 4. The “disease control grading … (rice)” value (Pyricularia oryzae; [1]) was 4, the “disease control grading … (vine)” value (Plasmopara viticola; [1]) was 4 and the “disease control grading … (tomato)” value (Phytophthora infestans; [1]) was 0 (60-100% of disease on untreated plants).

In the case of CO/C=C(/C(=O)OC)c1ccccc1Oc1ccc(NC=O)cn1 [Compound 130 (Table I)], the “disease control grading … (wheat)” value (Puccinia recondita; [1]) is reported as 3 (trace-5% of disease on untreated plants), the “disease control grading … (barley)” value (Erysiphe graminis hordei; [1]) is reported as 0 (60-100% of disease on untreated plants) and the “disease control grading … (apple)” value (Venturia inaequalis; [1]) is reported as 0 (60-100% of disease on untreated plants). The “disease control grading … (rice)” value (Pyricularia oryzae; [1]) was 0 (60-100% of disease on untreated plants), the “disease control grading … (peanut)” value (Cercospora arachidicola; [1]) was 4 and the “disease control grading … (vine)” value (Plasmopara viticola; [1]) was 0 (60-100% of disease on untreated plants). The “disease control grading … (tomato)” value (Phytophthora infestans; [1]) was 0 (60-100% of disease on untreated plants).
